In PubChem BioAssay AID2060604 (Molecular Pharmacology Branch, DTP, NCI, 2025):

System: 379773-124-R-J2-PDC complex spheroids, viability % test/control
Assay: Anticancer human tumor 379773-124-R-J2-PDC patient-derived endometrial carcinoma cell line growth inhibition [CLK]
Details: for IC50: curve of first compound; for viability, T/C: stronger effect = lower value
Text: A high-throughput screen of multi-cell type tumor spheroids was designed to identify active combinations of […] and targeted small molecules. Complex spheroids include a stromal component modeled by human endothelial cells (HUVEC) and fibroblasts modeled by human mesenchymal stem cells (MSCs). The concentration ranges selected for each drug and investigational agent were based upon clinically achievable concentrations if the clinical Cmax of the agent was known.
Compounds. The drugs and investigational agents: cirtuvivint (SM08502; NSC835563), CC-671 (NSC850746), vemurafenib (NSC761431), tapotoclax (NSC804041), sotorasib (NSC818433), adagrasib (NSC831453), MRTX-1133 (NSC836407), BAY2416964 (NSC825713), copanlisib (NSC816437), inavolisib (NSC800729), abemaciclib (NSC768073), osimertinib (NSC779217), entinostat (NSC756642), eltanexor (KPT-8602, NSC794443), venetoclax (NSC766270), ceralasertib (NSC777638), bortezomib (NSC756655), olaparib (NSC753686), talazoparib (NSC767125), alisertib (NSC759677), peposertib (NSC802822), gemcitabine (NSC613327), 5-fluorouracil (NSC19893), SN-38 (NSC673596), oxaliplatin (NSC266046), paclitaxel (NSC125973), and doxorubicin (NSC123127), were obtained from the National Cancer Institute (NCI) Developmental Therapeutics Program Chemical Repository. The FDA-approved anticancer drug set is available from the Developmental Therapeutics Program at https://dtp.cancer.gov/organization/dscb/obtaining/available plates.htm. […] The stock solutions were prepared in dimethyl sulfoxide (DMSO, Sigma-Aldrich, St. Louis, MO, cat. D2650), except for the platinum complexes which were prepared in saline (Quality Biological, Gaithersburg, MD, cat. 114-055-101), at 800-fold the tested concentration and stored at -70 degrees C prior to their use. All drugs and investigational agents were tested over a range starting from a high concentration at or near the clinical Cmax and decreasing in half-log increments. If the clinical Cmax for an agent had not been determined, the highest concentration tested was 10 microM.
Cell Culture. All cells were maintained in an incubator at 37 degrees C and 5% CO2 with 95% humidity. The PDC lines were cultured according to standard operating procedures established by the NCI PDMR. Briefly, all PDCs were thawed and cultured in Matrigel-coated flasks prepared with a working solution of 1X Ham's F-12 nutrient mix, without supplementation (Invitrogen, Waltham, MA, cat. 11765054), 100 U/mL penicillin-streptomycin (Invitrogen, cat. 15140122), and 2.5% Matrigel (Corning Inc., Corning, NY, cat. 354248) for the first three passages. The 947758-054-R-J2-PDC line was cultured in 6B/Colon 1A media, which includes advanced DMEM/F-12 (Thermo Fisher Scientific, cat. 12634028), 10 mM HEPES (Thermo Fisher Scientific, cat. 15630080), 1X GlutaMAX supplement (Thermo Fisher Scientific, cat. 35050061), 0.1 mg/mL primocin (InvivoGen, cat. ant-pm-2), 10% defined fetal bovine serum, heat inactivated (HyClone Laboratories Inc., cat. SH30070.03HI), 1.25 mM N-Acetyl-L-cysteine (Sigma-Aldrich, cat. A9165), 10 mM nicotinamide (Sigma-Aldrich, cat. N0636), 1X B-27 supplement (Thermo Fisher Scientific, cat. 17504044), 1X N-2 supplement (Thermo Fisher Scientific, cat. 17502048), and 10 microM Y-27632 dihydrochloride (Tocris Bioscience, cat. 1254). The 876862-298-R-J1-PDC was cultured in 6E media, which includes all 6B/Colon 1A media components plus 50% L-WRN conditioned media (ATCC, cat. CRL-3276), 50 ng/mL recombinant human EGF recombinant protein (hEGF; Thermo Fisher Scientific, cat. PHG0311), 10 ng/mL recombinant human fibroblast growth factor 10 (hGFG-10; PeproTech, cat. 100-26), 1 ng/mL recombinant human fibroblast growth factor 2 (hFGF-2; PeproTech, cat. 100-18B), and 1 µM prostaglandin E2 (PGE2; Tocris, cat. 2296). The 227483-062-R1-J1-PDC line was cultured in Panc media, containing all 6E components except hFGF-2, with the addition of 500 nM SB-431542 (Selleckchem, cat. S1067) and 10 nM gastrin (Tocris, cat. 3006). […]
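Further: compound exposure lasted seven days before the viability readout.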
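Wherever viability, T/C is given: 100% = DMSO vehicle control wells.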

COc1ccc([C@@H](O)c2cc(-c3ncnc4cc(N5CCOCC5)ccc34)c(F)cc2Cl)nn1 + CN1CCN(c2cc(C(=O)Nc3cc4cc(-c5cnn(C)c5)ccc4cn3)ccn2)CC1
IC50 (second compound 0.0316 µM): 5.32 µM
IC50 (second compound 0.1 µM): 2.82 µM
IC50 (second compound 0.316 µM): < 0.0316 µM
IC50 (second compound 1 µM): < 0.0316 µM
IC50 (second compound 3.16 µM): < 0.0316 µM
IC50 (second compound 10 µM): < 0.0316 µM
viability, T/C (second compound 0.0316 µM, first compound 0.0316 µM): 87.4%
viability, T/C (second compound 0.0316 µM, first compound 0.1 µM): 80.7%
viability, T/C (second compound 0.0316 µM, first compound 0.316 µM): 96.9%
viability, T/C (second compound 0.0316 µM, first compound 1 µM): 79.2%
viability, T/C (second compound 0.0316 µM, first compound 3.16 µM): 71.8%
viability, T/C (second compound 0.0316 µM, first compound 10 µM): 24.4%
viability, T/C (second compound 0.1 µM, first compound 0.0316 µM): 70.2%
viability, T/C (second compound 0.1 µM, first compound 0.1 µM): 76.5%
viability, T/C (second compound 0.1 µM, first compound 0.316 µM): 86.2%
viability, T/C (second compound 0.1 µM, first compound 1 µM): 47%
viability, T/C (second compound 0.1 µM, first compound 3.16 µM): 55%
viability, T/C (second compound 0.1 µM, first compound 10 µM): 19.1%
viability, T/C (second compound 0.316 µM, first compound 0.0316 µM): 14.9%
viability, T/C (second compound 0.316 µM, first compound 0.1 µM): 16.6%
viability, T/C (second compound 0.316 µM, first compound 0.316 µM): 16.6%
viability, T/C (second compound 0.316 µM, first compound 1 µM): 17.7%
viability, T/C (second compound 0.316 µM, first compound 3.16 µM): 12.9%
viability, T/C (second compound 0.316 µM, first compound 10 µM): 5.38%
viability, T/C (second compound 1 µM, first compound 0.0316 µM): 0.1%
viability, T/C (second compound 1 µM, first compound 0.1 µM): 0.09%
viability, T/C (second compound 1 µM, first compound 0.316 µM): 0.11%
viability, T/C (second compound 1 µM, first compound 1 µM): 0.05%
viability, T/C (second compound 1 µM, first compound 3.16 µM): 1.5%
viability, T/C (second compound 1 µM, first compound 10 µM): 0.08%
viability, T/C (second compound 3.16 µM, first compound 0.0316 µM): 0.65%
viability, T/C (second compound 3.16 µM, first compound 0.1 µM): 1.73%
viability, T/C (second compound 3.16 µM, first compound 0.316 µM): 0.73%
viability, T/C (second compound 3.16 µM, first compound 1 µM): 0.06%
viability, T/C (second compound 3.16 µM, first compound 3.16 µM): 0.09%
viability, T/C (second compound 3.16 µM, first compound 10 µM): 0.08%
viability, T/C (second compound 10 µM, first compound 0.0316 µM): 0.49%
viability, T/C (second compound 10 µM, first compound 0.1 µM): 0.1%
viability, T/C (second compound 10 µM, first compound 0.316 µM): 0.79%
viability, T/C (second compound 10 µM, first compound 1 µM): 0.11%
viability, T/C (second compound 10 µM, first compound 3.16 µM): 0.24%
viability, T/C (second compound 10 µM, first compound 10 µM): 0.14%
